# Measured values: patent US20030170643A1, “Regulation of apoB treatment and drug screening for cardiovascular and metabolic disorders or syndromes” (priority 1999, published 2003)
# How the values were obtained:
# Assay type in all cases: cell-based
# McArdle RH-7777 cells = assay: Secretion of labeled apoB and apoE by McArdle RH-7777 cells after MTP inhibition; settings: rat hepatoma cells, 4 hr, MTP inhibitor
# Description: FIG. 7 illustrates that inhibition of MTP reduces the secretion of newly synthesized apoB100 without affecting apoE. Rat McA hepatoma cells were incubated at 37 °C for 4 hr with [ ^35S]methionine in the absence (Control) or presence (MTPI) of an inhibitor of MTP activity. Equal aliquots of the conditioned media samples from duplicate wells were subjected to separate immunoprecipitations with anti-apoB or anti-apoE antiserum. For each well, the resulting pellets from the two immunoprecipitations were combined and analyzed by SDS-PAGE and fluorography.
# To determine the differential effects of MTP inhibition on the secretion of labeled apoB and apoE, in some experiments, McArdle RH-7777 cells were pre-treated for 30 min with MTP inhibitor BMS-200150 ([…] dissolved in DMSO; (Jamil, H., Gordon, D. A., Eustice, D. C., Brooks, C. M., Dickson, J. K., Jr., Chen, Y., Ricci, B., Chu, C.-H., Harrity, T. W., Ciosek, C. P., Jr., Biller, S. A., Gregg, R. E., and Wetterau, J. R. (1996) Proc Natl Acad Sci USA 93, 11991-11995)) or DMSO alone (final concentration 0.5%) before adding radiolabel. The cells were further incubated for 4 hr and the conditioned media contents of apoB and apoE determined by immunoprecipitation and SDS-PAGE analysis as described above.
# rat primary hepatocytes [1] = assay: TBARS assay of ROS in rat primary hepatocytes; settings: FIG. 16B
# rat hepatoma cells [2] = assay: Pulse-chase recovery of [35S]-apoB100 (apoB100 degradation) in rat hepatoma cells; settings: co-treatment with DHA, FIG. 13A and 13B
# Description: (§1) FIG. 13 illustrates that either an iron chelator (DFX) or lipid antioxidants block DHA-stimulated apoB degradation and reactive oxygen species (ROS) production. Rat hepatoma cells were plated in culture wells and pre-incubated in media containing either DHA or DHA with one of the indicated compounds. Radiolabeled methionine/cysteine was added to the culture media for 15 minutes, after which time, the culture media were replaced by fresh media identical in composition except that radiolabeled methionine/cysteine were replaced by unlabeled methionone/cysteine. The recovery of labeled apoB100 ([^35S]-apoB100) from the media and cell lysate was determined at the indicated time points (with time 0 being the point when the fresh media were applied to the cells) by immunoprecipitating apoB species with a rabbit polyclonal antibody to rat apoB, resuspending the immunoprecipitates, combining aliquots from cell lysate and media samples from each well, resolving the protein contents of the combined immunoprecipitates by SDS-polyacrylamide gel electrophoresis (SDS-PAGE), and exposing the resultant gels to X-ray film in order to visualize the labeled apoB bands. In panel A are shown representative signals for radiolabeled apoB100 in each of the treatment conditions. […] For each treatment, there were at least 2 wells/treatment for each time point and the entire experiment repeated. The signal intensities of the apoB100 bands were quantified by densitometry and the mean relative recoveries (the % of the 15 minute, or initial, value still remaining at 120 minutes) ±SEM are shown in panel B. Note that the visual impressions observable in panel A are confirmed by the quantitative analysis; i.e., there is a substantial increase in labeled apoB100 recovery with any of the co-treatments. In panel C, the ROS content of the cell lysates at the end of the experiment was measured by the standard TBARS assay (Stocks et al., 1974, Clin Sci Mol Med 47,215-222). Note that compared to control (BSA), DHA induced a large increase in TBARS, as expected because of its high content on unsaturated bonds.
# FIG. 14 illustrates that DHA, but not saturated MA, induces apoB100 degradation in rat hepatoma cells. An experiment similar to the one described in FIG. 13 was performed, with the following changes: A) The immunoprecipitates from cell lysate and media samples were not combined, but separately analyzed. B) In addition to the 15 and 120 minute time points, apoB recovery was determined at 30 minutes. C) In addition to DHA, the effects of the fatty acid myristic (MA) were also tested because it has no unsaturated bonds and should not give rise to ROS.
# FIG. 15 illustrates that AA stimulates apoB100 degradation and increases ROS. […] Note in the upper panel that the combined recovery (from two separate wells/time point) of radiolabeled apoB100 decreased from 15 to 120 minutes, indicating significant apoB100 degradation had occurred in the presence of AA. […] In addition to being a source of ROS, AA can also be converted by cyclooxygenase (COX) to bioactive prostaglandin compounds. We therefore repeated the experiment with AA but with co-treatment by the COX inhibitor aspirin.
# To further explore the underlying mechanisms, rat hepatoma cells or primary hepatocytes were incubated with the Ω-3 fatty acid DHA complexed to BSA, while blocking candidate cellular mediators. […] There was, however, strong evidence against a role for calcium. Chelation of intracellular Ca^++ with BAPTA-AM, pharmacologic blockage of Ca^++ channels, depletion of the ER-calcium pool, and increasing Ca++ influx with an ionophore each had no effect. Because EGTA also chelates Fe^+++, and DHA is subject to Fe^+++-dependent peroxidation, the role of this lipid modification was examined. As shown in FIG. 13A and 13B, Desferroxamine (DFX), a chelator of Fe^+++, the antioxidant vitamin E (Vit E), and the synthetic antioxidant BHT, each inhibited DHA-stimulated apoB100 degradation by ˜60%.
# rat hepatoma cells [3] = assay: TBARS assay of ROS in cell lysates of rat hepatoma cells; settings: co-treatment with DHA, FIG. 13C
# Description: as §1, with “bonds. […] FIG. 15 illustrates that AA stimulates apoB100 degradation and increases ROS. […] Note in the upper panel that the combined recovery (from two separate wells/time point) of radiolabeled apoB100 decreased from 15 to 120 minutes, indicating significant apoB100 degradation had occurred in the presence of AA. […] In addition to being a source of ROS, AA can also be converted by cyclooxygenase (COX) to bioactive prostaglandin compounds. We therefore repeated the experiment with AA but with co-treatment by the COX inhibitor aspirin.” for “bonds.”
# rat primary hepatocytes [4] = assay: Basal apoB100 degradation (pulse-chase recovery) in rat primary hepatocytes; settings: FIG. 16A
# rat primary hepatocytes [5] = assay: Secretion of newly synthesized ([35S]methionine-labeled) VLDL-apoproteins by rat primary hepatocytes incubated with fatty acid/BSA complexes; settings: fatty acid/BSA complexes (0.8 mM FA), VLDL fraction
# Description: Cells were plated at a density of 2×10^6 cells/ml on 60-mm culture dishes (previously coated with poly-D-lysine) in modified M199 medium (M199, 1% fetal bovine serum [FBS], 1 mM nicotinamide, 0.1 nM insulin, 3 mg/ml choline, 1.1% L-glutamine, 1% BSA). After a four-hour attachment period, the medium was changed (modified M199 identical to the above except BSA was omitted and the concentration of FBS was raised to 10%). The next morning, cells were washed in serum-free medium three times, the experimental media added, and the cells incubated at 37° C. for 4-6 hours. The experimental medium consisted of serum-free RPMI containing the appropriate isotopes (see below) and fatty acids (FA) present at a final concentration of 0.8 mM complexed to BSA (FA:BSA molar ratio=5:1). The fatty acids used were oleic (OA), EPA, and DHA. Control medium was identical, except that BSA (0.16 mM) without fatty acids was present. For metabolic labeling of proteins, [^35S]methionine (70 uCi/ml) was included in the experimental media.
# Following the 4-6 hour incubation period, the cell monolayer was washed, then solubilized in 0.1 M NaOH, and the cell protein determined by the Lowry method (Lowry, O. H., Rosebrough, N. J., Farr, A. L., and Randall, R. J. (1951) J Biol Chem 193, 265-75). Each 60 mm dish contained approximately 1-1.5 mg of cell protein. The secreted apoproteins were isolated from the medium either by ultracentrifugation or immunoprecipitation. To isolate the d<1.006 (VLDL) and 1.006<d<1.063 (IDL and LDL) g/ml density classes by centrifugation, sequential 20 hour runs at 48,000 rpm in a 50 Ti Beckman rotor at 4° C. were performed. After the first run at d=1.006, the upper VLDL layer was harvested and the density of the infranatant adjusted to 1.066 g/ml with solid KBr. After being overlaid with a KBr solution of density 1.063, the adjusted infranatant was re-centrifuged as before to isolate the IDL and LDL fractions. In some experiments, the HDL fraction (1.063<d<1.21) was isolated by sequential density centrifugation. Lipoprotein fractions were then dialyzed against 0.9% NaCl containing 10 mM unlabeled methionine, 0.2 mM PMSF, and 2 mM EDTA. Dialyzed lipoproteins were delipidated using 9 volumes of 100% isopropanol. Apoproteins were then collected by centrifugation in a Sorval HB-4 rotor at 10,000 rpm and 4° C. for 20 min, and dissolved in buffer (0.01 M phosphate, pH 7,1 % SDS, 10% glycerol), in preparation for electrophoresis.
# To immunoprecipitate apoB or apoE from unfractionated conditioned medium, monospecific rabbit antiserum to rat apoB or apoE was used. Briefly, an aliquot of the medium was mixed with an equal volume of diluted antiserum (1:100 in PBS and 1% BSA) and incubated overnight at 4° C. Staph A was added in the form of immunoprecipitin, and the resultant precipitate containing the immune complexes was washed extensively, the staph A cells removed, and the isolated apoprotein dissolved in gel sample buffer (0.0625M tris/Cl, pH 6.8, 20% glycerol, 2% SDS). Electrophoretic separation of apoVLDL, apoIDL/LDL, and immunoprecipitates was accomplished using 3.5% acrylamide-18% glycerol gels as described (Maguire, G. F., Lee, M., and Connelly, P. W. (1989) J Lipid Res 30, 757-61). An aliquot of each sample was taken for scintillation counting, so that total radioactivity applied to each lane could be determined. Also, protein size standards were included in each gel.
# After electrophoresis, the gels were stained, fixed, soaked in Enhance fluor solution, and dried following protocols supplied by the manufacturer. Dried gels were then exposed to X-ray film at −70° C. and signals on the resulting fluorograms were typically quantified by densitometry or phosphorimaging. Using the total radioactivity applied to each lane of the gel and the relative signal intensity of each band in that lane, the radioactivity associated with each apoprotein species was calculated. […]
# rat primary hepatocytes [6] = assay: Nascent VLDL re-uptake: VLDL-apoprotein secretion with or without heparin
# Description: FIG. 9 illustrates that DHA inhibits the secretion of newly synthesized VLDL-apoproteins even when re-uptake is blocked. Rat primary hepatocytes were treated as in FIG. 1, except that media in the indicated wells also was supplemented with heparin (10 mg/ml). Total labeled VLDL-apoproteins were determined as in FIG. 3. The results for the fatty acids are expressed relative to the corresponding result for BSA and are shown as mean ±SE (n=6).
# To evaluate whether there were differential effects of fish oil fatty acids and OA on the re-uptake of newly synthesized VLDL, an experimental design identical to that described above was employed, except heparin (0.1 mg/ml or 10 mg/ml) was added to the treatment media to block LDL receptor-dependent and proteoglycan-mediated re-uptake (Williams, K. J., Fless, G. M., Petrie, K. A., Snyder, M. L., Brocia, R. W., and Swenson, T. L. (1992) J Biol Chem 267(19), 13284-92). Control experiments were performed showing that the flotation properties of VLDL were unchanged in the presence of heparin.
# The concentration of heparin was 10 mg/ml, which blocks lipoprotein binding to both LDL receptors and HSPGs (Williams, K. J. et al. (1992) J Biol Chem 267(19), 13284-92, and citations therein). […] Thus, there is substantial re-uptake of nascent VLDL by primary hepatocytes in the presence of either fatty acid. […] Thus, re-uptake of newly exported apoB cannot explain the effect of Ω-3 fatty acids on lipoprotein secretion.
molecule,measurement,setting,value
O=C1c2ccccc2CN1C1CCN(CCC(c2ccccc2)c2ccccc2)CC1 [BMS compound #200150],secretion of newly synthesized apoB100,McArdle RH-7777 cells,almost completely abolished
same,secretion of newly synthesized apoE,McArdle RH-7777 cells,no significant effect
"CC(=O)N(O)CCCCCNC(=O)CCC(=O)N(O)CCCCCNC(=O)CCC(=O)N(O)CCCCCN [DFX, desferrioxamine]",ROS level (TBARS),rat primary hepatocytes [1],reduced
same,inhibition of DHA-stimulated apoB100 degradation,rat hepatoma cells [2],~60%
same,"DHA-increased ROS, TBARS assay, with co-treatment",rat hepatoma cells [3],reduced
same,basal level of apoB degradation,rat primary hepatocytes [4],essentially reversed
"CC/C=C\C/C=C\C/C=C\C/C=C\C/C=C\C/C=C\CCC(=O)O [DHA, docosahexaenoic acid]","secretion of newly synthesized VLDL-ApoB48, percentage of secretion observed with BSA alone",rat primary hepatocytes [5],39 ± 3 percentage
same,"secretion of newly synthesized VLDL-ApoB100, percentage of secretion observed with BSA alone",rat primary hepatocytes [5],24 ± 3 percentage
same,"secretion of newly synthesized VLDL-ApoE, percentage of secretion observed with BSA alone",rat primary hepatocytes [5],53 ± 2 percentage
same,"secretion of VLDL apoproteins, % of the OA control",rat primary hepatocytes [6]; independent of heparin treatment (10 mg/ml),approximately 50%
heparin,apoB output in the presence of either fatty acid,rat primary hepatocytes [6]; heparin 0.1 mg/ml,failed to increase
same,net secretion of newly synthesized VLDL-apoproteins during treatment with either OA or DHA,"rat primary hepatocytes [6]; heparin 10 mg/ml, P<0.01",approximately two-fold
